Assay results from article PMC3199943, “Screening the MayBridge Rule of 3 Fragment Library for Compounds That Interact with the Trypanosoma brucei myo-Inositol-3-Phosphate Synthase and/or Show Trypanocidal Activity” (Molecular Biology International, 2011).

molecular target: T1, TbINO1 (Trypanosoma brucei brucei, UniProt Q5QQ46); experiment: biochemical; assay type: binding; details: read-out: Tb Ino1 Tm Shift [˚C]
T1 sequence (Q5QQ46 1-528): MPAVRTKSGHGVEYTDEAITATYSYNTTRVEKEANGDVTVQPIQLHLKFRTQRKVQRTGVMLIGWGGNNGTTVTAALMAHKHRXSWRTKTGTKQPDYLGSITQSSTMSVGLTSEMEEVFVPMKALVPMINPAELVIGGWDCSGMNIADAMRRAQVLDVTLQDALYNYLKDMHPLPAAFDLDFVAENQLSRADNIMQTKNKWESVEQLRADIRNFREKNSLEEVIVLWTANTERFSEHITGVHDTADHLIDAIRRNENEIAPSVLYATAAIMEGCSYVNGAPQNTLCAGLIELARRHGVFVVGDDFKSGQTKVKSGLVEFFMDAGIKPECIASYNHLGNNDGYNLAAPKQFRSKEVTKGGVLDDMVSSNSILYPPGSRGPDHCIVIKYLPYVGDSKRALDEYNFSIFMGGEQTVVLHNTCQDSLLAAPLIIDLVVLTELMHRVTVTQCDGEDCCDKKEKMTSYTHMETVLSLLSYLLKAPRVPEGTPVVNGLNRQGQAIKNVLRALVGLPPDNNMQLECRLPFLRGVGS

ΔTm at 1000 µM [°C] | SMILES
0.01 ± 0.05 | OCc1cc2ccccc2s1 [compound 301, 1‐benzothiophen‐2‐ylmethanol]
0.8 ± 0.08 | OCc1cc2cccnc2s1 [compound 311, thieno[2,3‐b]pyridin‐2‐ylmethanol]
0.69 ± 0.08 | Nc1cc(-c2cccs2)[nH]n1 [compound 313, 5‐thien‐2‐yl‐1H‐pyrazol‐3‐amine]
1.23 ± 0.07 | O=C(O)CCc1ccccc1O [compound 323, 3‐(2‐hydroxyphenyl)propanoic acid]
0.61 ± 0.06 | CCOC(=O)c1[nH]c(C)cc1C [compound 330, ethyl 3,5‐dimethyl‐1H‐pyrrole‐2‐carboxylate]
0.47 ± 0.04 | OC1CCC(C(F)(F)F)CC1 (centres unmarked) [compound 333, 4‐(trifluoromethyl)cyclohexan‐1‐ol]
0.39 ± 0.06 | N#Cc1cccc(-n2ccnc2)c1 [compound 339, 3‐(1H‐imidazol‐1‐yl)benzonitrile]
0.18 ± 0.06 | N#Cc1ccccc1-n1cccn1 [compound 340, 2‐(1H‐pyrazol‐1‐yl)benzonitrile]
1.05 ± 0.07 | Cc1cc(Cl)ccc1C(=O)O [compound 350, 4‐chloro‐2‐methylbenzoic acid]
0.44 ± 0.06 | Nc1cccc(-c2cncnc2)c1 [compound 353, 3‐pyrimidin‐5‐ylaniline]
0.28 ± 0.08 | CCOC(=O)c1csc(C)n1 [compound 356, ethyl 2‐methyl‐1,3‐thiazole‐4‐carboxylate]
0.13 ± 0.06 | O=C(O)Cc1cc(F)cc(F)c1 [compound 359, 2‐(3,5‐difluorophenyl)acetic acid]
0.05 ± 0.07 | N#Cc1cccc(N2CCCC2)c1 [compound 362, 3‐pyrrolidin‐1‐ylbenzonitrile]
0.33 ± 0.08 | O=C(O)c1ccnc2ccccc12 [compound 368, quinoline‐4‐carboxylic acid]
0.57 ± 0.04 | O=C(O)c1ccc2ncccc2c1 [compound 370, quinoline‐6‐carboxylic acid]

same assay, conditions: read-out: TbIno1 Tm shift [°C]

ΔTm at 1000 µM [°C] | SMILES
3.56 ± 0.06 | O=C1CC(c2ccccc2)=NO1 [compound 272, 3-phenyl-4,5-dihydroisoxazol-5-one]
1.54 ± 0.11 | O=C(O)C1Cc2ccccc2N1 (centres unmarked) [compound 292, indoline-2-carboxylic acid]
1.54 ± 0.07 | Cn1c(CO)cc2sccc21 [compound 331, (4-methyl-4H-thieno[3,2-b]pyrrol-5-yl)methanol]

SMILES | ΔTm at 1000 µM [°C]
O=C(O)c1cc2sccc2[nH]1 [compound 328, 4H-thieno[3,2-b]pyrrole-5-carboxylic acid] | 2.29 ± 0.1

tested on: HeLa cells; experiment: cells; details: Homo sapiens, HeLa, 65 h, read-out: HeLa Cells Alamar Blue
In short: (§1)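 Viability by Alamar Blue (5 h) after ~65 h drug treatment; seeding density 2 × 10^4 cells/well in DMEM supplemented with 10% FCS and 2 mM L-Glutamine.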

SMILES | viability at 500 µM [%]
O=C1CC(c2ccccc2)=NO1 [compound 272, 3-phenyl-4,5-dihydroisoxazol-5-one] | 89.4 ± 3.9
O=C(O)C1Cc2ccccc2N1 (centres unmarked) [compound 292, indoline-2-carboxylic acid] | 37.6 ± 25
OCc1cc2ccccc2s1 [compound 301, 1‐benzothiophen‐2‐ylmethanol] | 90.7 ± 4.5
OCc1cc2cccnc2s1 [compound 311, thieno[2,3‐b]pyridin‐2‐ylmethanol] | 92 ± 11.8
Nc1cc(-c2cccs2)[nH]n1 [compound 313, 5‐thien‐2‐yl‐1H‐pyrazol‐3‐amine] | 101 ± 18.9
O=C(O)CCc1ccccc1O [compound 323, 3‐(2‐hydroxyphenyl)propanoic acid] | 113 ± 2.8
CCOC(=O)c1[nH]c(C)cc1C [compound 330, ethyl 3,5‐dimethyl‐1H‐pyrrole‐2‐carboxylate] | 122 ± 12.3
Cn1c(CO)cc2sccc21 [compound 331, (4-methyl-4H-thieno[3,2-b]pyrrol-5-yl)methanol] | 93.6 ± 14.9
OC1CCC(C(F)(F)F)CC1 (centres unmarked) [compound 333, 4‐(trifluoromethyl)cyclohexan‐1‐ol] | 110 ± 4.4
N#Cc1cccc(-n2ccnc2)c1 [compound 339, 3‐(1H‐imidazol‐1‐yl)benzonitrile] | 89.8 ± 5.8
N#Cc1ccccc1-n1cccn1 [compound 340, 2‐(1H‐pyrazol‐1‐yl)benzonitrile] | 104 ± 16.5
Cc1cc(Cl)ccc1C(=O)O [compound 350, 4‐chloro‐2‐methylbenzoic acid] | 108 ± 9.9
Nc1cccc(-c2cncnc2)c1 [compound 353, 3‐pyrimidin‐5‐ylaniline] | 78.7 ± 10
CCOC(=O)c1csc(C)n1 [compound 356, ethyl 2‐methyl‐1,3‐thiazole‐4‐carboxylate] | 106 ± 5.3
O=C(O)Cc1cc(F)cc(F)c1 [compound 359, 2‐(3,5‐difluorophenyl)acetic acid] | 108 ± 13.6
N#Cc1cccc(N2CCCC2)c1 [compound 362, 3‐pyrrolidin‐1‐ylbenzonitrile] | 97.4 ± 19.9
O=C(O)c1ccnc2ccccc12 [compound 368, quinoline‐4‐carboxylic acid] | 90.7 ± 7.5
O=C(O)c1ccc2ncccc2c1 [compound 370, quinoline‐6‐carboxylic acid] | 109 ± 13.1

same assay, conditions: Homo sapiens, HeLa, 65 h, read-out: HeLa Cells Alamar Blue (% survival)

SMILES | viability at 500 µM [%]
O=C1CC(c2ccccc2)=NO1 [compound 272, 3-phenyl-4,5-dihydroisoxazol-5-one] | 89.4 ± 3.9
O=C(O)C1Cc2ccccc2N1 (centres unmarked) [compound 292, indoline-2-carboxylic acid] | 37.6 ± 2.5
Cn1c(CO)cc2sccc21 [compound 331, (4-methyl-4H-thieno[3,2-b]pyrrol-5-yl)methanol] | 93.6 ± 14.9

same assay, conditions: Homo sapiens, HeLa, 65 h, read-out: HeLa Cells Alamar Blue (% survival), compound 0.5 mM; percentage of controls

SMILES | viability at 500 µM [%]
O=C(O)c1cc2sccc2[nH]1 [compound 328, 4H-thieno[3,2-b]pyrrole-5-carboxylic acid] | 106 ± 6.9

same assay, conditions: Homo sapiens, HeLa, 65 h, read-out: HeLa Cells Alamar Blue, Supplementary Table 1; compound 0.5 mM; percentage of controls; mean ± SD (n=3) or SE (n=2)

SMILES | viability at 500 µM [%]
O=C(O)c1cc2sccc2[nH]1 [compound 328, 4H-thieno[3,2-b]pyrrole-5-carboxylic acid] | 106 ± 6.9

same assay, conditions: Homo sapiens, HeLa, read-out: HeLa ED50

SMILES | CC50 [µM]
Cn1c(CO)cc2sccc21 [compound 331, (4-methyl-4H-thieno[3,2-b]pyrrol-5-yl)methanol] | 169 ± 10

tested on: A549 cells; experiment: Cytotoxicity against A549 cells, Alamar Blue; assay type: cell-based; details: Homo sapiens, A549, 65 h; Supplementary Table 1; compound 0.5 mM; percentage of controls (n=1)
In short: as §1

SMILES | viability at 500 µM [%]
O=C1CC(c2ccccc2)=NO1 [compound 272, 3-phenyl-4,5-dihydroisoxazol-5-one] | 61.5
O=C(O)C1Cc2ccccc2N1 (centres unmarked) [compound 292, indoline-2-carboxylic acid] | 78.3
OCc1cc2ccccc2s1 [compound 301, 1‐benzothiophen‐2‐ylmethanol] | 71
OCc1cc2cccnc2s1 [compound 311, thieno[2,3‐b]pyridin‐2‐ylmethanol] | 77.5
Nc1cc(-c2cccs2)[nH]n1 [compound 313, 5‐thien‐2‐yl‐1H‐pyrazol‐3‐amine] | 81.7
O=C(O)CCc1ccccc1O [compound 323, 3‐(2‐hydroxyphenyl)propanoic acid] | 110
O=C(O)c1cc2sccc2[nH]1 [compound 328, 4H-thieno[3,2-b]pyrrole-5-carboxylic acid] | 136
CCOC(=O)c1[nH]c(C)cc1C [compound 330, ethyl 3,5‐dimethyl‐1H‐pyrrole‐2‐carboxylate] | 156
Cn1c(CO)cc2sccc21 [compound 331, (4-methyl-4H-thieno[3,2-b]pyrrol-5-yl)methanol] | 121
OC1CCC(C(F)(F)F)CC1 (centres unmarked) [compound 333, 4‐(trifluoromethyl)cyclohexan‐1‐ol] | 114
N#Cc1cccc(-n2ccnc2)c1 [compound 339, 3‐(1H‐imidazol‐1‐yl)benzonitrile] | 135
N#Cc1ccccc1-n1cccn1 [compound 340, 2‐(1H‐pyrazol‐1‐yl)benzonitrile] | 134
Cc1cc(Cl)ccc1C(=O)O [compound 350, 4‐chloro‐2‐methylbenzoic acid] | 160
Nc1cccc(-c2cncnc2)c1 [compound 353, 3‐pyrimidin‐5‐ylaniline] | 56.4
CCOC(=O)c1csc(C)n1 [compound 356, ethyl 2‐methyl‐1,3‐thiazole‐4‐carboxylate] | 79.8
O=C(O)Cc1cc(F)cc(F)c1 [compound 359, 2‐(3,5‐difluorophenyl)acetic acid] | 128
N#Cc1cccc(N2CCCC2)c1 [compound 362, 3‐pyrrolidin‐1‐ylbenzonitrile] | 63.3
O=C(O)c1ccnc2ccccc12 [compound 368, quinoline‐4‐carboxylic acid] | 90.3
O=C(O)c1ccc2ncccc2c1 [compound 370, quinoline‐6‐carboxylic acid] | 152
